Assay results reported in US20260262643A1, “HERBICIDAL BENZOXAZINES” (FMC CORPORATION, priority 2022, published 2026).

Tests used:
corn [1] = test: Test C postemergence; format: in vivo, Zea mays; settings: 10 days
In short: (§1)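 Greenhouse herbicide screen, 10-day duration. Test chemicals in solvent/surfactant blend were sprayed onto soil at sowing (pre) or onto 2–10 cm seedlings at one to two leaves (post); injury scored visually against controls, 0 no effect to 100 complete control.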

ryegrass, Italian = test: Test C postemergence; format: in vivo, Lolium multiflorum; settings: 10 days
In short: as §1

oat, wild [2] = test: Test C preemergence; format: in vivo, Avena fatua; settings: 0 to 100 scale (0 no effect, 100 complete control)
In short: as §1

horseweed = test: Test C postemergence; format: in vivo, Erigeron canadensis; settings: 10 days
In short: as §1

barnyardgrass [3] = test: Test C postemergence; format: in vivo, Echinochloa crusgalli; settings: 10 days
In short: as §1

blackgrass [4] = test: Test C postemergence; format: in vivo, Alopecurus myosuroides; settings: 10 days
In short: as §1

ragweed [5] = test: Test C postemergence; format: in vivo, Ambrosia artemisiifolia; settings: 10 days
In short: as §1

galium = test: Test C postemergence; format: in vivo, Galium aparine; settings: 10 days
In short: as §1

pigweed, palmer [6] = test: Test C preemergence; format: in vivo, Amaranthus palmeri; settings: 0 to 100 scale (0 no effect, 100 complete control)
In short: as §1

kochia [7] = test: Test C postemergence; format: in vivo, Bassia scoparia; settings: 10 days
In short: as §1

soybean [8] = test: Test C preemergence; format: in vivo, Glycine max; settings: 0 to 100 scale (0 no effect, 100 complete control)
In short: as §1

blackgrass [9] = test: Test C preemergence; format: in vivo, Alopecurus myosuroides; settings: 0 to 100 scale (0 no effect, 100 complete control)
In short: as §1

wheat [10] = test: Test C postemergence; format: in vivo, Triticum aestivum; settings: 10 days
In short: as §1

green foxtail [11] = test: Test C preemergence; format: in vivo, Setaria viridis; settings: 0 to 100 scale (0 no effect, 100 complete control)
In short: as §1

corn [12] = test: Test C preemergence; format: in vivo, Zea mays; settings: 0 to 100 scale (0 no effect, 100 complete control)
In short: as §1

barnyardgrass [13] = test: Test D flooded paddy test; format: in vivo, Echinochloa crus-galli; settings: 250 g ai/ha, applied to paddy water, visual rating after 13 to 14 days, scale 0 to 100 (0 no effect, 100 complete control)
In short: (§2)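 Post-flood water application at the 2-leaf stage; 3 cm flood depth kept constant; visual control rating 0–100 after 13–14 days greenhouse growth.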

ducksalad = test: Test D flooded paddy test; format: in vivo, Heteranthera limosa; settings: 250 g ai/ha, applied to paddy water, visual rating after 13 to 14 days, scale 0 to 100 (0 no effect, 100 complete control)
In short: as §2

oat, wild [14] = test: Test C postemergence; format: in vivo, Avena fatua; settings: 10 days
In short: as §1

ragweed [15] = test: Test C preemergence; format: in vivo, Ambrosia artemisiifolia; settings: 0 to 100 scale (0 no effect, 100 complete control)
In short: as §1

rice = test: Test D flooded paddy test; format: in vivo, Oryza sativa; settings: 250 g ai/ha, applied to paddy water, visual rating after 13 to 14 days, scale 0 to 100 (0 no effect, 100 complete control)
In short: as §2

sedge, umbrella = test: Test D flooded paddy test; format: in vivo, Cyperus difformis; settings: 250 g ai/ha, applied to paddy water, visual rating after 13 to 14 days, scale 0 to 100 (0 no effect, 100 complete control)
In short: as §2

wheat [16] = test: Test C preemergence; format: in vivo, Triticum aestivum; settings: 0 to 100 scale (0 no effect, 100 complete control)
In short: as §1

pigweed, palmer [17] = test: Test C postemergence; format: in vivo, Amaranthus palmeri; settings: 10 days
In short: as §1

green foxtail [18] = test: Test C postemergence; format: in vivo, Setaria viridis; settings: 10 days
In short: as §1

soybean [19] = test: Test C postemergence; format: in vivo, Glycine max; settings: 10 days
In short: as §1

barnyardgrass [20] = test: Test C preemergence; format: in vivo, Echinochloa crusgalli; settings: 0 to 100 scale (0 no effect, 100 complete control)
In short: as §1

kochia [21] = test: Test C preemergence; format: in vivo, Bassia scoparia; settings: 0 to 100 scale (0 no effect, 100 complete control)
In short: as §1

[22] = 125 g ai/ha, postemergence, 0 to 100 scale, 0 no effect, 100 complete control
[23] = Postemergence, 500 g ai/ha, visual 0 to 100 scale (0 no effect, 100 complete control)
[24] = Preemergence, 500 g ai/ha, visual rating after 10 days
[25] = Test C, preemergence, 125 g ai/ha

With `CSCc1ncn(-c2ccc(C)c(C(=O)N3C[C@H](C)Oc4c(Cl)cccc43)c2)n1` [Compound 178] the “Plant response rating, Corn” value (corn [1]; [22]) was 60, the “Plant response rating, Corn” value (corn [1]; [23]) was 90 and the “Plant response rating, Ryegrass, Italian” value (ryegrass, Italian; [22]) was 80. For the same molecule, the “Plant response rating, Ryegrass, Italian” value (ryegrass, Italian; [23]) was 100, the “Plant response rating, Oat, Wild” value (oat, wild [2]; [24]) was 90 and the “Oat, Wild plant response rating” value (oat, wild [2]; [25]) was 30. For the same molecule, the “Plant response rating, Horseweed” value (horseweed; [22]) was 70, the “Plant response rating, Horseweed” value (horseweed; [23]) was 90 and the “Plant response rating, Barnyardgrass” value (barnyardgrass [3]; [22]) was 10. For the same molecule, the “Plant response rating, Barnyardgrass” value (barnyardgrass [3]; [23]) was 60, the “Plant response rating, Blackgrass” value (blackgrass [4]; [22]) was 60 and the “Plant response rating, Blackgrass” value (blackgrass [4]; [23]) was 90. For the same molecule, the “Plant response rating, Ragweed” value (ragweed [5]; [22]) was 60, the “Plant response rating, Ragweed” value (ragweed [5]; [23]) was 90 and the “Plant response rating, Galium” value (galium; [22]) was 100. The “Plant response rating, Galium” value (galium; [23]) was 100, the “Plant response rating, Pigweed, Palmer” value (pigweed, palmer [6]; [24]) was 100 and the “Pigweed, Palmer plant response rating” value (pigweed, palmer [6]; [25]) was 90. The “Plant response rating, Kochia” value (kochia [7]; [22]) was 80, the “Plant response rating, Kochia” value (kochia [7]; [23]) was 90 and the “Plant response rating, Soybean” value (soybean [8]; [24]) was 80. For the same molecule, the “Soybean plant response rating” value (soybean [8]; [25]) was 60, the “Plant response rating, Blackgrass” value (blackgrass [9]; [24]) was 90 and the “Blackgrass plant response rating” value (blackgrass [9]; [25]) was 60. For the same molecule, the “Plant response rating, Wheat” value (wheat [10]; [22]) was 20, the “Plant response rating, Wheat” value (wheat [10]; [23]) was 50 and the “Plant response rating, Foxtail, Green” value (green foxtail [11]; [24]) was 100. For the same molecule, the “Foxtail, Green plant response rating” value (green foxtail [11]; [25]) was 100, the “Plant response rating, Corn” value (corn [12]; [24]) was 50 and the “Corn plant response rating” value (corn [12]; [25]) was 20. The “Plant response rating, Barnyardgrass (Flood)” value (barnyardgrass [13]) was 15, the “Plant response rating, Ducksalad (Flood)” value (ducksalad) was 95 and the “Plant response rating, Oat, Wild” value (oat, wild [14]; [22]) was 30. For the same molecule, the “Plant response rating, Oat, Wild” value (oat, wild [14]; [23]) was 90, the “Plant response rating, Ragweed” value (ragweed [15]; [24]) was 50 and the “Ragweed plant response rating” value (ragweed [15]; [25]) was 0. For the same molecule, the “Plant response rating, Rice (Flood)” value (rice) was 15, the “Plant response rating, Sedge, Umbrella (Flood)” value (sedge, umbrella) was 90 and the “Plant response rating, Wheat” value (wheat [16]; [24]) was 70. The “Wheat plant response rating” value (wheat [16]; [25]) was 30, the “Plant response rating, Pigweed, Palmer” value (pigweed, palmer [17]; [22]) was 90 and the “Plant response rating, Pigweed, Palmer” value (pigweed, palmer [17]; [23]) was 90. For the same molecule, the “Plant response rating, Foxtail, Green” value (green foxtail [18]; [22]) was 20, the “Plant response rating, Foxtail, Green” value (green foxtail [18]; [23]) was 90 and the “Plant response rating, Soybean” value (soybean [19]; [22]) was 100. For the same molecule, the “Plant response rating, Soybean” value (soybean [19]; [23]) was 100, the “Plant response rating, Barnyardgrass” value (barnyardgrass [20]; [24]) was 90 and the “Barnyardgrass plant response rating” value (barnyardgrass [20]; [25]) was 20. The “Plant response rating, Kochia” value (kochia [21]; [24]) was 100 and the “Kochia plant response rating” value (kochia [21]; [25]) was 90.
